Measured values from patent publication US6344191B2, “Chemical attractants for moths” (The United States of America as represented by the …, priority 1998, dated 2002).

Key:
Assay in all cases: Field trapping test, baited Trappit dome traps in apple and pear orchards
Assay type in all cases: in vivo
Conditions in all cases: for Numbers captured in traps: Experiment 4, 0.25% acetic acid in drowning solution and/or 1 ml alcohol in cap, unbaited control
[1] = test system: spotted cutworm (Xestia c-nigrum)
Experimental: (§1) Materials and Methods. The Trappit™ dome trap (Agrisense, Fresno, Calif.) was used in all tests. Two hundred ml of a drowning solution was used in the reservoir of all traps. This solution was 200 ml water, 25 μl of detergent, 50 μl yellow, 25 μl blue, and 60 μl red food dyes (McCormick, Hunt Valley, N.J.), and 20 mg clay. Acetic acid, when tested, was added to the drowning solution as a percent of the solution. Alcohols tested were loaded in polyethylene caps (No. 60975D-3, Kimball Glass, Vineland, N.J.) that were impaled on a push pin glued to the inside of the top of the trap. Traps were serviced two or three times per week depending on weather conditions, and the drowning solution with or without acetic acid was replaced weekly. Alcohols in polyethylene caps were replaced monthly.
(§2) All experiments were conducted in commercial apple and pear orchards. Traps were hung from tree branches at 1.5 to 2 m above ground, with 10 m between traps within a block and 10 m between adjacent blocks.
(§3) Experiment Overview. Four trapping experiments were conducted in apple and pear orchards in the Yakima Valley during the summer of 1998. An initial experiment compared captures of pest moths in traps baited with the combination of acetic acid and 3-methyl-1-butanol to acetic acid alone and to fermented molasses solution. The second experiment was a comparison of the attractiveness of the combination of acetic acid and 3-methyl-1-butanol with varying percentages of acetic acid in the drowning solution. The third experiment was a comparison of the attractiveness of the combination of acetic acid and 3-methyl-1-butanol with varying doses of the 3-methyl-1-butanol in the cap. The fourth experiment was a test of possible synergism or enhancement of acetic acid with 3-methyl-1-butanol and acetic acid with 3-methyl-1-pentanol and a comparison of the two alcohols.
(§4) Trap catch data for each species was subjected to an ANOVA and means were separated by Duncan's New Multiple Range Test for the first and fourth experiments. Linear regression was used to analyze trap data from the second and third experiments to determine if their was a significant relationship between concentration (acetic acid) or dose (3-methyl-1-butanol) and captures of moths in traps.
(§5) Experiment 1. Traps were baited (1) with 0.25% acetic acid in the drowning solution, (2) with 0.5% acetic acid in the drowning solution and one ml of 3-methyl-1-butanol in a polyethylene cap, or (3) with 200 ml of a 10% solution of molasses in water. A randomized complete block design was used, with 4 blocks set up in early May. Traps were maintained through May and June and again in August.
Experiment 4. […]

[2] = test system: bertha armyworm (Mamestra configurata)
Experimental: as §1, §2, §3, §4, §5
(§6) Experiment 2. Traps were all baited with one ml of 3-methyl-1-butanol in a polyethylene cap and with either no acetic acid in the drowning solution or with 0.008, 0.03, 0.125, 0.5, or 2% glacial acetic acid by volume in the 200 ml of drowning solution. A randomized complete block design was used, with 4 blocks set up in late July, with each of the 6 treatments represented within each block. This experiment was maintained through August and early September.
(§7) Experiment 3. Traps were all baited with 0.25% acetic acid in the drowning solution and either 0, 12.5, 25, 50, or 100% 3-methyl-1-butanol in one ml of a mixture of 3-methyl-1-butanol and mineral oil. A randomized complete block design was used with each of the 5 treatments represented within each block. This experiment was set up in late July and was maintained through early September.
(§8) Experiment 4. Traps were either unbaited (control) or were baited with 0.25% acetic acid in the drowning solution (acetic acid), with 0.25% acetic acid in the drowning solution and one ml of 3-methyl-1-butanol in a polyethylene cap, with 0.25% acetic acid in the drowning solution and one ml of 3-methyl-1-pentanol in a polyethylene cap, with one ml of 3-methyl-1-butanol in a cap, or with one ml of 3-methyl-1-pentanol in a cap.

Lacanobia subjuncta = test system: Lacanobia subjuncta
Experimental: as §1, §2, §3, §4, §5, §6, §7, §8

[3] = Experiment 1, 0.25% acetic acid in drowning solution, 200 ml 10% molasses solution
[4] = Experiment 2, 1 ml 3-methyl-1-butanol in cap, no acetic acid

Structure (SMILES) | Catches of female moths, acetic acid versus molasses ([1]; Experiment 1, females, 0.25% acetic acid, 10% molasses solution) | Numbers captured in traps [1] | Catches of male or female moths, acetic acid versus molasses [2, 3] | Numbers captured in traps [2] | Catches of male or female moths, acetic acid versus molasses (Lacanobia subjuncta; [3]) | Numbers captured in traps (Lacanobia subjuncta) | Numbers of moths captured in traps [2, 4] | Numbers of moths captured in traps (Lacanobia subjuncta; [4])
CC(=O)O [acetic acid, reference compound] | no difference | significantly higher than the unbaited traps | no difference | significantly higher than the unbaited traps | no difference | significantly higher than the unbaited traps |  | 
CC(C)CCO [3-methyl-1-butanol] |  | significantly higher than the unbaited traps |  | significantly higher than the unbaited traps |  | significantly higher than the unbaited traps | Nearly no | nearly no moths
CCC(C)CCO (centres unmarked) [3-methyl-1-pentanol] |  | significantly higher than the unbaited traps |  | significantly higher than the unbaited traps |  | significantly higher than the unbaited traps |  | 
